For assay [1], the target named is Sodium-dependent serotonin transporter (Homo sapiens, UniProt P31645). Briefly: Inhibition of human SERT transfected in HEK cells using APP+ as fluorescent substrate preincubated for 1 hr followed by substrate addition and measured after 30 mins by fluorescence plate reader assay. In kind it is cell-based.
Assay [2] addresses Synaptic vesicular amine transporter (Rattus norvegicus, UniProt Q01827). The experiment in a line: Inhibition of rat VMAT2 transfected in HEK cells using FFN206 as fluorescent substrate preincubated for 1 hr followed by substrate addition and measured after 30 mins by fluorescence plate reader assay. In kind it is cell-based.

pIC50: −log10 of the molar value.

Chain of Synaptic vesicular amine transporter (Q01827 whole entry): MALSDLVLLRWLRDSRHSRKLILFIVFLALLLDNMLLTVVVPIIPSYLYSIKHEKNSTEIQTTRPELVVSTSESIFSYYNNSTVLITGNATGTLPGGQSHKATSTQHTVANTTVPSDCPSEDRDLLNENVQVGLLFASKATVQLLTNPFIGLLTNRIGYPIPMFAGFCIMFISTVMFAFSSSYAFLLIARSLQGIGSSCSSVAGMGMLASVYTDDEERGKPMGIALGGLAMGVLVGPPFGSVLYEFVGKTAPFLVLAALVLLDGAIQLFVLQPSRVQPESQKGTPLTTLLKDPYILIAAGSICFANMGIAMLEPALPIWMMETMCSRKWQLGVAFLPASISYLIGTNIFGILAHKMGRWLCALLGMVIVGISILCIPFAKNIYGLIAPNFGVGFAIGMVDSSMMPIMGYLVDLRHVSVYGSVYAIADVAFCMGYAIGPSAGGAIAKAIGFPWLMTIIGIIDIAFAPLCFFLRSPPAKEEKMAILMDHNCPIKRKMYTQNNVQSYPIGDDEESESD
Chain of Sodium-dependent serotonin transporter (P31645 whole entry): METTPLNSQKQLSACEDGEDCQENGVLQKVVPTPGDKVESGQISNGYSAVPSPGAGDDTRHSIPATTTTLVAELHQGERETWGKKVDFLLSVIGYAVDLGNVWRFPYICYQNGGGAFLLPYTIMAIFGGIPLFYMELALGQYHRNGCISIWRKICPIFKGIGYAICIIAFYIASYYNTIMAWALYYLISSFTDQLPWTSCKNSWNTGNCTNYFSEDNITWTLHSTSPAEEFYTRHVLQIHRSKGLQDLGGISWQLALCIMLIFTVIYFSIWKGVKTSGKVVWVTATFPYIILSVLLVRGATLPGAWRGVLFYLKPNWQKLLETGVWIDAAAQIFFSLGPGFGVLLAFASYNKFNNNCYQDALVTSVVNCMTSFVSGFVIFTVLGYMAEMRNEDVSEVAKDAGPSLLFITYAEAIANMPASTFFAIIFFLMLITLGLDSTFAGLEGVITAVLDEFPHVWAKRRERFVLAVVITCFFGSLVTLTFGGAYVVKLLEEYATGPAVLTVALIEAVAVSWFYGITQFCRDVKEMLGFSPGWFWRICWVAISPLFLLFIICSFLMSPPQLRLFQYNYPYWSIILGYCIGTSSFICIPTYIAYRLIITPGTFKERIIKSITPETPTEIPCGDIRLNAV

For `CC[C@H]1C[C@@H]2C[C@H]3c4c(c5cc(OC)ccc5n4C)CCN(C2)[C@@H]13`, the results for the pIC50 in assay [1] and in assay [2] were 5.82 and 6.13, respectively.
With `CC[C@H]1C[C@@H]2C[C@H]3c4c(c5cc(O)ccc5n4CC)CCN(C2)[C@@H]13`, the pIC50 (in general, the IC50 on a negative log10 scale, so that one unit is a factor of ten) in assay [1] was 5.72; in assay [2], 7.15.
With `CC[C@H]1C[C@@H]2CC3c4[nH]c5ccc(O)cc5c4CCN(C2)[C@H]31`, the pIC50 in assay [2] was 6.24.
As for `CC[C@H]1C[C@@H]2C[C@H]3c4c(c5cc(C#N)ccc5n4C)CCN(C2)[C@@H]13`, the pIC50 in assay [1] is 8.29; in assay [2] it was 6.36.
In turn, `CC[C@H]1C[C@@H]2C[C@H]3c4[nH]c5ccc(OC)cc5c4CCN(C2)[C@@H]13` showed a pIC50 in assay [2] of 5.40.
Take `CC[C@H]1C[C@@H]2C[C@H]3c4[nH]c5ccc(OC)c(Br)c5c4CCN(C2)[C@@H]13`: the pIC50 in assay [1] was 6.17; in assay [2] it was 5.31.
In the case of `CC[C@H]1C[C@@H]2C[C@H]3c4[nH]c5ccc(C#N)cc5c4CCN(C2)[C@@H]13`, the figures for the pIC50 in assay [1] and in assay [2] were 7.59 and 5.48, respectively.
With `CC[C@H]1C[C@@H]2C[C@H]3c4c(c5ccccc5n4C)CCN(C2)[C@@H]13`, the pIC50 is 7.10 in assay [1] and 5.82 in assay [2].
Take `CC[C@H]1C[C@@H]2C[C@H]3c4[nH]c5ccccc5c4CCN(C2)[C@@H]13`: the values for the pIC50 in assay [1] and in assay [2] were 6.48 and 5.52, respectively.
Regarding `CCc1ccc2c(c1)c1c(n2C)[C@@H]2C[C@H]3C[C@H](CC)[C@@H]2N(CC1)C3`, the pIC50 was 6.04 in assay [1] and 6.12 in assay [2].
The matching figures for `CC[C@H]1C[C@@H]2C[C@H]3c4c(c5cc(O)ccc5n4C)CCN(C2)[C@@H]13`: 7.23 and 6.77.
The matching figures for `CCOc1ccc2[nH]c3c(c2c1)CCN1C[C@@H]2C[C@H](CC)[C@H]1[C@H]3C2`: 5.05 and 7.10.

Source of the values: ChEMBL document CHEMBL5131556, “Ibogaine and Their Analogs as Therapeutics for Neurological and Psychiatric Disorders” (ACS Med Chem Lett, 2022).
